# Experimental data published in patent US8785199B2, “Culture medium and method for inducing differentiation into adipocytes” (Fujirebio, Inc, priority 2009, dated 2014).
# Test system: human bone marrow-derived mesenchymal stem cells
# Assay: Differentiation induction of human bone marrow-derived mesenchymal stem cells into adipocytes (oil red O staining, adiponectin ELISA, real-time PCR)
# Type: cell-based
# Conditions: not given
# Experimental: A serum-free control culture medium (Comparative Example 1) was produced by adding 5 μM of LPA, 1 mM of vitamin C, 100 μM of biotin, and 41.5 nM of progesterone to Dulbecco's modified Eagle's medium (DMEM) containing HEPES (concentration of 25 mM).
# To HEPES-containing DMEM, at the final concentrations, 500 μM of isobutylmethylxanthine (IBMX), 1 μM of dexamethasone, 1 μM of insulin, and 1 μM of rosiglitazone were added to produce an adipocyte differentiation inducing culture medium.
# To the above adipocyte differentiation inducing culture medium, 5 μM of LPA, 1 mM of vitamin C, 100 μM of biotin, and 41.5 nM of progesterone were added to produce a serum-free differentiation inducing culture medium according to the present invention (hereinafter referred to as serum-free differentiation culture medium: Example 1).
# To each of HEPES-containing DMEM and the adipocyte differentiation inducing culture medium, 10% of fetal bovine serum (FBS) was added to produce a conventional culture medium (Comparative Example 2) and a conventional differentiation culture medium (Comparative Example 3).
# Human bone marrow-derived mesenchymal stem cells (strain name: normal human mesenchymal stem cells (Cryo hMSC purchased from LONZA) were seeded in a culture container with a 48-hole culture plate at a cell density of 30,000 cells/cm^2. These culture media were replaced with respective fresh ones every three to four days to culture the cells at 37 degrees C. and 5% CO2 for 7 to 21 days, thereby inducing differentiation into adipocytes.
# The adipocytes were confirmed by oil red 0 staining of lipid droplets accumulated in the cells. Additionally, the oil red O-stained cells were extracted with isopropanol to measure the quantity of lipid accumulated in the cells using an absorption spectrophotometer (wavelength of 492 nm). Then, the quantities of adiponectin secreted from the cells in the three days: Day 4 to Day 7, Day 11 to Day 14, and Day 18 to Day 21 of differentiation induction were confirmed using an adiponectin ELISA kit (Fujirebio Inc). Furthermore, the mRNA expressions of PPAR-gamma and adiponectin were confirmed by real-time PCR. The forward and reverse primers for PPRA-gamma used were […] (SEQ ID NO:1) and tcgcctttgctttggtcag (SEQ ID NO:2), respectively; the forward and reverse primers for adiponectin used were […] (SEQ ID NO:3) and […] (SEQ ID NO:4), respectively; and the forward and reverse primers for GAPDH used were […] (SEQ ID NO:5) and […] (SEQ ID NO:6), respectively.
# As in Example 1, at the final concentrations, 500 μM of IBMX, 1 μM of dexamethasone, 1 μM of insulin, and 1 μM of rosiglitazone were added to HEPES-containing DMEM to produce an adipocyte differentiation inducing culture medium. To the adipocyte differentiation inducing basal medium, 5 μM of LPA, 1 mM of vitamin C, […], and 41.5 nM of progesterone were added to produce a serum-free differentiation culture medium according to the present invention (Example 2). On the other hand, for comparison, there were also prepared a culture medium without LPA alone (Comparative Example 4), a culture medium without vitamin C alone (Comparative Example 5), a culture medium without biotin alone (Comparative Example 6), and a culture medium without progesterone alone (Comparative Example 7).
# To DMEM not containing HEPES, at the final concentrations, 500 μM of IBMX, 1 μM of dexamethasone, 1 μM of insulin, and 1 μM of rosiglitazone were added to produce an adipocyte differentiation inducing culture medium 2. To the adipocyte differentiation inducing basal medium 2, 5 μM of LPA, 1 mM of vitamin C, 100 μM of biotin, and 41.5 nM of progesterone were added to produce a serum-free differentiation culture medium 2 (Comparative Example 8).
# As in Example 1, human bone marrow-derived mesenchymal stem cells were seeded in the wells of a 48-hole culture plate at the cell density of 30,000 cells/cm^2. […]
row,Molecule,effect on the quantity of lipid droplets in adipocytes when added to the culture medium
1,CC(=O)[C@H]1CC[C@H]2[C@@H]3CCC4=CC(=O)CC[C@]4(C)[C@H]3CC[C@]12C [progesterone],increasing the quantity of lipid droplets in adipocytes

# Same assay, conditions: component left out of the serum-free differentiation culture medium; 21 days; FIG. 4
row,Molecule,necessity of the component for inducing differentiation into adipocytes
1,1-oleoyl lysophosphatidic acid sodium [LPA],necessary
2,"O=S(=O)(O)CCN1CCN(CCO)CC1 [HEPES, 2-[4-(2-hydroxyethyl)-1-piperazinyl]ethanesulfonic acid]",necessary
3,O=C(O)CCCC[C@@H]1SC[C@@H]2NC(=O)N[C@@H]21 [biotin],necessary
4,CC(=O)[C@H]1CC[C@H]2[C@@H]3CCC4=CC(=O)CC[C@]4(C)[C@H]3CC[C@]12C [progesterone],not essential
5,O=C1O[C@H]([C@@H](O)CO)C(O)=C1O [vitamin C],necessary
